The first assay addresses human PDE2A1 (Homo sapiens (Human), UniProt O00408). The experiment in a line: IMAP fluorescence polarization assay, human PDE2A1 (PDE selectivity panel). In kind it is biochemical.
Conditions: not given
How it is done: The activity of the compounds in accordance with the present invention as PDE2 inhibitors may be readily determined using a fluorescence polarization (FP) methodology (Huang, W., et al., J. Biomol Screen, 2002, 7: 215).
Dose-inhibition profiles for each compound were characterized by fitting the mP data to a four-parameter equation given below.
Selectivity for PDE2, as compared to other PDE families, was assessed using the IMAP® technology. Human PDE10A2 enzyme was prepared from cytosolic fractions of transiently transfected HEK cells. All other PDE's were GST Tag human enzyme expressed in insect cells and were obtained from BPS Bioscience (San Diego, Calif.): PDE1A (Cat#60010), human PDE2A1 (Cat#60020), PDE3A (Cat#60030), PDE4A1A (Cat#60040), PDE5A1 (Cat#60050), PDE6C (Cat#60060), PDE7A (Cat#60070), PDE8A1 (Cat#60080), PDE9A2 (Cat#60090), PDE11A4 (Cat#60110).
Assays for PDE 1 through 11 were performed in parallel at room temperature in 384-well microtiter plates with an incubation volume of 20.2 μL. Solutions of test compounds were prepared in DMSO and serially diluted with DMSO to yield 30 μL of each of ten solutions differing by 3-fold in concentration, at 32 serial dilutions per plate. […] A Labcyte POD 810 (Labcyte, Sunnyvale, Calif.) was used to dispense 200 nL from each well of the titration plate to make eleven copies of the assay plate for each titration, one copy for each PDE enzyme. A solution of each enzyme (dilution from aliquots, sufficient to produce 20% substrate conversion) and a separate solution of FAM-labeled cAMP or FAM-labeled cGMP from Molecular Devices (Sunnyvale, Calif., product # R7506 or cGMP#R7508), at a final concentration of 50 nM were made in the assay buffer (10 mM Tris HCl, pH 7.2, 10 mM MgCl2, 0.05% NaN3 0.01% Tween-20, and 1 mM DTT). Note that the substrate for PDE2 is 50 nM FAM cAMP containing 1000 nM of cGMP. The enzyme and the substrate were then added to the assay plates in two consecutive additions of 10 μL and then shaken to mix. The reaction was allowed to proceed at room temperature for 60 minutes. A binding solution was then made from the kit components, comprised of 80% Solution A, 20% Solution B and binding reagent at a volume of 1/600 the total binding solution. The enzymatic reaction was stopped by addition of 60 μL of the binding solution to each well of the assay plate. The plates were sealed and shaken for 10 seconds. The plates were incubated at room temperature for one hour, then the parallel and perpendicular fluorescence was measured using a Tecan Genios Pro plate reader (Tecan, Switzerland). The apparent inhibition constants for the compounds against all 11 PDE's was determined from the parallel and perpendicular fluorescent readings as described for PDE10 FP assay using the following apparent KM values for each enzyme and substrate combination: PDE1A (FAM cGMP) 70 nM, human PDE2A1 (FAM cAMP) 10,000 nM, PDE3A (FAM cAMP) 50 nM, PDE4A1A (FAM cAMP) 1500 nM, PDE5A1 (FAM cGMP) 400 nM, PDE6C (FAM cGMP) 700 nM, PDE7A (FAM cAMP) 150 nM, PDE8A1 (FAM cAMP) 50 nM, PDE9A2 (FAM cGMP) 60 nM, PDE10A2 (FAM cAMP) 150 nM, PDE11A4 (FAM cAMP) 1000 nM. The intrinsic PDE2 inhibitory activity of a compound which may be used in accordance with the present invention may be determined by these assays.
On the technique in general: Polarisation of emitted light reports the rotation of a fluorescent probe.
Sequence of human PDE2A1 (O00408 other isoform, or with tags, fused parts or gaps): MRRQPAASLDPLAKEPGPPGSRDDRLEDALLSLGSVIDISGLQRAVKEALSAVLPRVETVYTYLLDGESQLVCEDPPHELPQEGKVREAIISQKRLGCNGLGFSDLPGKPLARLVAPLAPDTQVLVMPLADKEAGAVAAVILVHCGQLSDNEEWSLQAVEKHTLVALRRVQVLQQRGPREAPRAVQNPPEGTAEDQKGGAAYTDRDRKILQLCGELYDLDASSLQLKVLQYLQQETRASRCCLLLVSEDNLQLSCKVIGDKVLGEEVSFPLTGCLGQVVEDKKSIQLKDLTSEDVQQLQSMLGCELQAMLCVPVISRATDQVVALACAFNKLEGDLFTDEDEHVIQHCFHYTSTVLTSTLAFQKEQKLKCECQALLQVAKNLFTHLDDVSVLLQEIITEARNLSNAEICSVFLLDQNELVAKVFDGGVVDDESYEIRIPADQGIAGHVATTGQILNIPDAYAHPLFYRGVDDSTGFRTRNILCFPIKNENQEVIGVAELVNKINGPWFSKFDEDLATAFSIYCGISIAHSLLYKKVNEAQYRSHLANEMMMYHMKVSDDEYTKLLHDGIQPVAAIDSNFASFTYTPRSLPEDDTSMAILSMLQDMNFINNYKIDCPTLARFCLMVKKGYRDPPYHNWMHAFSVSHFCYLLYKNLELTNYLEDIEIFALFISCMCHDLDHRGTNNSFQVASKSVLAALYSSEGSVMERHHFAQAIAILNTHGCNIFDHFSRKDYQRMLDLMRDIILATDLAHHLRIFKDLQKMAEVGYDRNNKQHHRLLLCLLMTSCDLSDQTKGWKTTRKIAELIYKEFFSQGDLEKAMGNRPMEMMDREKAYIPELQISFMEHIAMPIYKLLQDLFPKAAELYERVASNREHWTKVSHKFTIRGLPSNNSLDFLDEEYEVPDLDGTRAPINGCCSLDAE
A word on the inhibition: it is the share of the control response that was lost under treatment. In the case of `Cc1nc(-c2nnn3c2CCCC3c2ccc(C(F)(F)F)cc2F)cc(=O)[nH]1` (single isomer, unassigned) [Example 49, (R)- or (S)-6-(7-(2-fluoro-4-(trifluoromethyl)phenyl)-4,5,6,7-tetrahydro-[1,2,3]triazolo[1,5-a]pyridin-3-yl)-2-methylpyrimidin-4(3H)-one], the inhibition at 3 µM was 33%. For `Cc1nc(-c2nnc(C(C)c3ccc(C(F)(F)F)cc3F)n2C)cc(=O)[nH]1` (single isomer, unassigned) [Example 63, (R)- or (S)-6-(5-(1-(2-fluoro-4-(trifluoromethyl)-phenyl)ethyl)-4-methyl-4H-1,2,4-triazol-3-yl)-2-methylpyrimidin-4(3H)-one], the inhibition at 3 µM was found to be 16%.

Staying with this assay, now noted: FAM cAMP 50 nM with 1000 nM cGMP.
For orientation: Ki means a dissociation constant, usually derived from enzyme kinetics or from competition with a known ligand. Consider `Cc1nc(-c2cn(C(c3ccc(C(F)(F)F)cc3F)C(C)C)nn2)cc(=O)[nH]1` (single isomer, unassigned) [Example 40, (S)- or (R)-6-(1-(1-(2-fluoro-4-(trifluoromethyl)phenyl)-2-methylpropyl)-1H-1,2,3-triazol-4-yl)-2-methylpyrimidin-4(3H)-one], for which the inhibition constant Ki turned out to be 22.6 nM. Still for that read-out and setting: then `Cc1nc(-c2cn(C(c3ccc(C(F)(F)F)cc3F)C3CC3)nn2)cc(=O)[nH]1` (single isomer, unassigned) [Example 41], with 38 nM. Still for that read-out and setting: the result for `Cc1nc(-c2cn(C(c3ccc(C(F)(F)F)cc3F)C3CC3)nn2)cc(=O)[nH]1` (single isomer, unassigned) [Example 42] reads 9.7 nM; that for `Cc1nc(-c2nnn([C@H](C)c3ccc(C(F)(F)F)cc3Cl)c2C)cc(=O)[nH]1` (single isomer, unassigned) [Example 43], 4.6 nM; that for `CCCCc1c(-c2cc(=O)[nH]c(C)n2)nnn1C(C)c1ccc(C(F)(F)F)cc1Cl` (single isomer, unassigned) [Example 45, (R)- or (S)-6-(5-butyl-1-(1-(2-chloro-4-(trifluoromethyl)phenyl)ethyl)-1H-1,2,3-triazol-4-yl)-2-methylpyrimidin-4(3H)-one], 9.2 nM. The same measure, in the same setting: the result for `CCCCc1c(-c2cc(=O)[nH]c(C)n2)nnn1C(C)c1ccc(C(F)(F)F)cc1Cl` (single isomer, unassigned) [Example 46, (S)- or (R)-6-(5-butyl-1-(1-(2-chloro-4-(trifluoromethyl)phenyl)ethyl)-1H-1,2,3-triazol-4-yl)-2-methylpyrimidin-4(3H)-one] reads 1100 nM; that for `Cc1nc(-c2nnn3c2CCC[C@H]3c2ccc(C(F)(F)F)cc2)cc(=O)[nH]1` (single isomer, unassigned) [Example 48], 42.4 nM; that for `Cc1nc(-c2nnn3c2CCCC3c2ccc(C(F)(F)F)cc2F)cc(=O)[nH]1` (single isomer, unassigned) [Example 50, (S)- or (R)-6-(7-(2-fluoro-4-(trifluoromethyl)phenyl)-4,5,6,7-tetrahydro-[1,2,3]triazolo[1,5-a]pyridin-3-yl)-2-methylpyrimidin-4(3H)-one], 20.7 nM. Regarding `Cc1nc(-c2nnn3c2CCCCC3c2ccc(C(F)(F)F)cc2)cc(=O)[nH]1` (single isomer, unassigned) [Example 51, (R)- or (S)-2-methyl-6-(8-(4-(trifluoromethyl)phenyl)-5,6,7,8-tetrahydro-4H-[1,2,3]triazolo[1,5-a]azepin-3-yl)pyrimidin-4(3H)-one], the Ki amounted to 79.9 nM.

As to `Cc1nc(-c2nnn3c2CCCCC3c2ccc(C(F)(F)F)cc2)cc(=O)[nH]1` (single isomer, unassigned) [Example 52, (S)- or (R)-2-methyl-6-(8-(4-(trifluoromethyl)phenyl)-5,6,7,8-tetrahydro-4H-[1,2,3]triazolo[1,5-a]azepin-3-yl)pyrimidin-4(3H)-one], the inhibitory constant (Ki) was 139 nM. Still for that read-out and setting: then `Cc1nc(-c2nnn3c2CCC[C@@]3(C)c2ccc(C(F)(F)F)cc2)cc(=O)[nH]1` (single isomer, unassigned) [Example 54], with 16.2 nM. As for `Cc1nc(-c2nnn3c2CCC[C@@]3(C)c2ccc(C(F)(F)F)cc2)cc(=O)[nH]1` (single isomer, unassigned) [Example 55], the Ki was 232 nM.

With `CCC1(c2ccc(C(F)(F)F)cc2)CCCc2c(-c3cc(=O)[nH]c(C)n3)nnn21` (single isomer, unassigned) [Example 56, (R)- or (S)-6-(7-ethyl-7-(4-(trifluoromethyl)phenyl)-4,5,6,7-tetrahydro-[1,2,3]triazolo[1,5-a]pyridin-3-yl)-2-methylpyrimidin-4(3H)-one], the Ki is 616 nM. Still for that read-out and setting: the result for `CCC1(c2ccc(C(F)(F)F)cc2)CCCc2c(-c3cc(=O)[nH]c(C)n3)nnn21` (single isomer, unassigned) [Example 57, (S)- or (R)-6-(7-ethyl-7-(4-(trifluoromethyl)phenyl)-4,5,6,7-tetrahydro-[1,2,3]triazolo[1,5-a]pyridin-3-yl)-2-methylpyrimidin-4(3H)-one] reads 29 nM; that for `Cc1nc(-c2nnn3c2CCCC3(C)c2ccc(C(F)(F)F)cc2F)cc(=O)[nH]1` (single isomer, unassigned) [Example 58, (R)- or (S)-6-(7-(2-fluoro-4-(trifluoromethyl)phenyl)-7-methyl-4,5,6,7-tetrahydro-[1,2,3]triazolo[1,5-a]pyridin-3-yl)-2-methylpyrimidin-4(3H)-one], 1.3 nM; that for `Cc1nc(-c2nnn3c2CCCC3(C)c2ccc(C(F)(F)F)cc2F)cc(=O)[nH]1` (single isomer, unassigned) [Example 59, (S)- or (R)-6-(7-(2-fluoro-4-(trifluoromethyl)phenyl)-7-methyl-4,5,6,7-tetrahydro-[1,2,3]triazolo[1,5-a]pyridin-3-yl)-2-methylpyrimidin-4(3H)-one], 178 nM. On the same count and under the same terms, the result for `Cc1nc(-c2nnc(C(C)c3ccc(C(F)(F)F)cc3F)[nH]2)cc(=O)[nH]1` (single isomer, unassigned) [Example 61, (R)- or (S)-6-(5-(1-(2-fluoro-4-(trifluoromethyl)-phenyl)ethyl)-4H-1,2,4-triazol-3-yl)-2-methylpyrimidin-4(3H)-one] reads 52.7 nM; that for `Cc1nc(-c2nnc(C(C)c3ccc(C(F)(F)F)cc3F)[nH]2)cc(=O)[nH]1` (single isomer, unassigned) [Example 62, (S)- or (R)-6-(5-(1-(2-fluoro-4-(trifluoromethyl)-phenyl)ethyl)-4H-1,2,4-triazol-3-yl)-2-methylpyrimidin-4(3H)-one], 387 nM; that for `Cc1nc(-c2nnc(C(C)c3ccc(C(F)(F)F)cc3F)n2C)cc(=O)[nH]1` (single isomer, unassigned) [Example 64, (S)- or (R)-6-(5-(1-(2-fluoro-4-(trifluoromethyl)-phenyl)ethyl)-4-methyl-4H-1,2,4-triazol-3-yl)-2-methylpyrimidin-4(3H)-one], 23.3 nM. For `Cc1nc(-c2nnc(C(C)c3ccc(C(F)(F)F)cc3Cl)[nH]2)cc(=O)[nH]1` (single isomer, unassigned) [Example 65, (R)- or (S)-6-(5-(1-(2-chloro-4-(trifluoromethyl)-phenyl)ethyl)-4H-1,2,4-triazol-3-yl)-2-methylpyrimidin-4(3H)-one], the Ki came to 15.9 nM. Consider `Cc1nc(-c2nnc(C(C)c3ccc(C(F)(F)F)cc3Cl)[nH]2)cc(=O)[nH]1` (single isomer, unassigned) [Example 66, (S)- or (R)-6-(5-(1-(2-chloro-4-(trifluoromethyl)-phenyl)ethyl)-4H-1,2,4-triazol-3-yl)-2-methylpyrimidin-4(3H)-one], for which the Ki stood at 525 nM.

For the origin of these results see US10358435B2, “Triazolyl pyrimidinone compounds as PDE2 inhibitors” (Merck Sharp & Dohme Corp., priority 2015, dated 2019).
